“Also recorded” adds a separate entry of the source.
Test system: b-subunit of ATP synthase (atpF, Rv1306) and hsp (Rv0251c)
Format: cell-based, M. bovis BCG (Pasteur strain, ATCC 35734)

Row | Compound | overexpression of hsp and b-subunit of ATP synthase on 2-D gels | time to overexpression of both proteins post exposure [h]
1 | NNC(=O)c1ccncc1 [INH, isoniazid] | Neither; also recorded: failed to result in overexpression | 
2 | CCCCCCCCS(=O)(=O)CC(N)=O [OSA, n-octanesulfonylacetamide] | significant overexpression | ≤ 3.5
3 | C/C=C/C/C=C/CCC(=O)[C@H]1O[C@H]1C(N)=O [cerulenin] | Neither; also recorded: failed to result in overexpression | 

— US20060135568A1, “Methods of treating microbial infections in humans and animals” (priority 2002, published 2006)
